Values after ≈ are worked out from the molar mass of the structure shown. Active and inactive are the calls of the source. The rule behind the calls is not given here.
Key:
Pichia kudriavzevii [1] = experiment: Antifungal activity against Candida krusei ATCC 20298 assessed as inhibition of fungal growth at highest concentration incubated for 24 to 48 hrs by CLSI protocol based broth microdilution method; format: functional, organism-based; settings: time 24-48 hrs
[Candida] auris [2] = Antifungal activity against Candida auris COLO 01 A assessed as inhibition of fungal growth at highest concentration incubated for 24 to 48 hrs by CLSI protocol based broth microdilution method; format: functional, organism-based; settings: Candidozyma auris, time 24-48 hrs
Candida tropicalis [3] = experiment: Antifungal activity against Candida tropicalis ATCC 750 assessed as inhibition of fungal growth at highest concentration incubated for 24 to 48 hrs by CLSI protocol based broth microdilution method; format: functional, organism-based; settings: time 24-48 hrs
Candida parapsilosis [4] = experiment: Antifungal activity against Candida parapsilosis ATCC 22019 assessed as inhibition of fungal growth at highest concentration incubated for 24 to 48 hrs by CLSI protocol based broth microdilution method; format: functional, organism-based; settings: time 24-48 hrs
[5] = Cytotoxicity against H9c2 cells assessed as inhibition of cell proliferation incubated for 72 hrs by resazurin dye based microplate reader analysis; format: toxicity; settings: rat
Nakaseomyces glabratus [6] = experiment: Antifungal activity against Candida glabrata ATCC 2001 assessed as inhibition of fungal growth at highest concentration incubated for 24 to 48 hrs by CLSI protocol based broth microdilution method; format: functional, organism-based; settings: time 24-48 hrs
Candida albicans [7] = experiment: Antifungal activity against Candida albicans SC5314 assessed as inhibition of fungal growth at highest concentration incubated for 24 to 48 hrs by CLSI protocol based broth microdilution method; format: functional, organism-based; settings: time 24-48 hrs
Cryptococcus gattii VGI = experiment: Antifungal activity against Cryptococcus gattii ATCC 24065 assessed as inhibition of fungal growth at highest concentration incubated for 24 to 48 hrs by CLSI protocol based broth microdilution method; format: functional; settings: time 24-48 hrs
Nakaseomyces glabratus [8] = experiment: Antifungal activity against Candida glabrata ATCC 2001 assessed as inhibition of fungal growth incubated for 24 to 48 hrs by CLSI protocol based broth microdilution method; format: functional; settings: time 24-48 hrs
[9] = Selectivity index, ratio of CC50 for cytotoxicity against […] H9c2 cells to MIC for antifungal activity against Cryptococcus gattii ATCC 24065; format: toxicity, cell-based; settings: rat, read-out: Selectivity Index
[10] = Selectivity index, ratio of CC50 for cytotoxicity against […] H9c2 cells to MIC for antifungal activity against Candida glabrata ATCC 2001; format: toxicity, cell-based; settings: rat, read-out: Selectivity Index
[11] = Antifungal activity against Cryptococcus gattii ATCC 24065 assessed as inhibition of fungal growth incubated for 24 to 48 hrs by CLSI protocol based broth microdilution method; format: functional, Cryptococcus gattii VGI; settings: time 24-48 hrs
[Candida] auris [12] = Antifungal activity against Candida auris COLO 01 A assessed as inhibition of fungal growth incubated for 24 to 48 hrs by CLSI protocol based broth microdilution method; format: functional; settings: Candidozyma auris, time 24-48 hrs
Candida parapsilosis [13] = experiment: Antifungal activity against Candida parapsilosis ATCC 22019 assessed as inhibition of fungal growth incubated for 24 to 48 hrs by CLSI protocol based broth microdilution method; format: functional; settings: Lodderomyces parapsilosis, time 24-48 hrs
Candida tropicalis [14] = experiment: Antifungal activity against Candida tropicalis ATCC 750 assessed as inhibition of fungal growth incubated for 24 to 48 hrs by CLSI protocol based broth microdilution method; format: functional; settings: time 24-48 hrs
Candida albicans [15] = experiment: Antifungal activity against Candida albicans SC5314 assessed as inhibition of fungal growth incubated for 24 to 48 hrs by CLSI protocol based broth microdilution method; format: functional; settings: time 24-48 hrs
Pichia kudriavzevii [16] = experiment: Antifungal activity against Candida krusei ATCC 20298 assessed as inhibition of fungal growth incubated for 24 to 48 hrs by CLSI protocol based broth microdilution method; format: functional; settings: time 24-48 hrs
[17] = Selectivity index, ratio of CC50 for cytotoxicity against […] H9c2 cells to MIC for antifungal activity against Candida krusei ATCC 20298; format: toxicity, cell-based; settings: read-out: Selectivity Index
Candida albicans [18] = experiment: Potency index, ratio of miconazole MIC to test compound MIC for antifungal activity against Candida albicans SC5314 assessed as inhibition of fungal growth incubated for 24 to 48 hrs by CLSI protocol based broth microdilution method; format: functional; settings: time 24-48 hrs
[19] = Selectivity index, ratio of CC50 for cytotoxicity against […] H9c2 cells to MIC for antifungal activity against Candida tropicalis ATCC 750; format: toxicity, cell-based; settings: read-out: Selectivity Index
[20] = molecular target: T1, Lanosterol 14-alpha demethylase (Candida albicans (strain SC5314 / ATCC MYA-2876) (Yeast), UniProt P10613); experiment: Inhibition of CYP51 in Candida albicans SC5314 assessed as reduction in ergosterol level at 3 fold MIC incubated overnight by spectrophotometric analysis
T1 sequence (P10613 whole entry): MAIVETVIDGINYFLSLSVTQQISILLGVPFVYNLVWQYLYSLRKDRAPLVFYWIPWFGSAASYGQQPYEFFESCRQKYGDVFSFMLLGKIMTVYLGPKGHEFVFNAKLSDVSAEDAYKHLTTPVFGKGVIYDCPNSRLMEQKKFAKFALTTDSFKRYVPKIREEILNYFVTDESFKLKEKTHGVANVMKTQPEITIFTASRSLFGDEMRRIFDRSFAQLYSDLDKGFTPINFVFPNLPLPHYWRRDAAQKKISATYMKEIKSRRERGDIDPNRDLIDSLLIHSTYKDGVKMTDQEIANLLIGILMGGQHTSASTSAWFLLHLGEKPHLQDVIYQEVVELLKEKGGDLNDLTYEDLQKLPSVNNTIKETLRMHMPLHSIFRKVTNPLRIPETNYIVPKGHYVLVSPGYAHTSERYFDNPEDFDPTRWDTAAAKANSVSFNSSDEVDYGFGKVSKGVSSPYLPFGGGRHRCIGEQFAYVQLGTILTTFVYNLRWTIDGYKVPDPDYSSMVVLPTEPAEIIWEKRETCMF

[21] = Selectivity index, ratio of CC50 for cytotoxicity against […] H9c2 cells to MIC for antifungal activity against Candida auris COLO 01 A; format: toxicity, cell-based; settings: read-out: Selectivity Index
[22] = Selectivity index, ratio of CC50 for cytotoxicity against […] H9c2 cells to MIC for antifungal activity against Candida parapsilosis ATCC 22019; format: toxicity, cell-based; settings: read-out: Selectivity Index
[23] = molecular target: T1, Lanosterol 14-alpha demethylase; experiment: Inhibition of CYP51 in Candida albicans SC5314 assessed as reduction in ergosterol level at 2 fold MIC incubated overnight by spectrophotometric analysis
[24] = Selectivity index, ratio of CC50 for cytotoxicity against […] H9c2 cells to MIC for antifungal activity against Candida albicans SC5314; format: toxicity, cell-based; settings: read-out: Selectivity Index
[Candida] auris [25] = Potency index, ratio of fluconazole MIC to test compound MIC for antifungal activity against Candida auris COLO 01 A assessed as inhibition of fungal growth incubated for 24 to 48 hrs by CLSI protocol based broth microdilution method; format: functional, Candidozyma auris; settings: time 24-48 hrs

Compound | Activity (Pichia kudriavzevii [1]) | Activity ([Candida] auris [2]) | Activity (Candida tropicalis [3]) | Activity (Candida parapsilosis [4]) | CC50 at 72 h [5] [µM] | Activity (Nakaseomyces glabratus [6]) | Activity (Candida albicans [7]) | Activity (Cryptococcus gattii VGI) | MIC (Nakaseomyces glabratus [8]) [µM] | MIC [11] [µM] | also measured
C=CCc1ccc(OCC(Cn2cncn2)OCc2ccc(Cl)cc2)c(OC)c1 (stereo not drawn) | inactive | inactive | inactive | inactive | 52.9 | inactive | inactive | inactive | – | – | –
CCCc1ccc(OCC(O)Cn2ccnc2)c(OC)c1 (stereo not drawn) | inactive | inactive | inactive | inactive | 453 | inactive | inactive | inactive | – | – | –
C=CCc1ccc(OCC(Cn2ccnc2)OCc2ccc(Cl)cc2)c(OC)c1 (stereo not drawn) | inactive | inactive | inactive | inactive | 33.6 | – | inactive | – | 36.8 (≈ 15.2 µg/mL) | 18.9 (≈ 7.8 µg/mL) | selectivity ratio [9]: 1.8; selectivity ratio [10]: 0.9
C=CCc1ccc(OCC(Cn2cncn2)OC(=O)c2ccc(Cl)cc2)c(OC)c1 (stereo not drawn) | inactive | inactive | inactive | inactive | 96.2 | inactive | inactive | inactive | – | – | –
CCCc1ccc(OCC(Cn2cncn2)OC(=O)c2ccc(Cl)cc2)c(OC)c1 (stereo not drawn) | inactive | inactive | inactive | inactive | 35.4 | inactive | inactive | inactive | – | – | –
Clc1ccc(COC(Cn2ccnc2)c2ccc(Cl)cc2Cl)c(Cl)c1 (stereo not drawn) [MICONAZOLE] | – | – | – | – | – | – | – | – | 1.2 (≈ 0.499 µg/mL) | 9.4 (≈ 3.91 µg/mL) | MIC ([Candida] auris [12]): 74.9 µM (≈ 31.2 µg/mL); MIC (Candida parapsilosis [13]): 7.8 µM (≈ 3.25 µg/mL); MIC (Candida tropicalis [14]): 31.2 µM (≈ 13 µg/mL); MIC (Candida albicans [15]): 150 µM (≈ 62.5 µg/mL); MIC (Pichia kudriavzevii [16]): 18.7 µM (≈ 7.78 µg/mL)
CCCc1ccc(OCC(Cn2ccnc2)OCc2ccc(Cl)cc2)c(OC)c1 (stereo not drawn) | – | – | – | – | 44.2 | – | – | – | 37.6 (≈ 15.6 µg/mL) | 18.8 (≈ 7.8 µg/mL) | selectivity ratio [17]: 1.2; Ratio (Candida albicans [18]): 8; MIC ([Candida] auris [12]): 75.3 µM (≈ 31.2 µg/mL); selectivity ratio [19]: 0.6; inhibition (INH) [20]: Active; MIC (Candida parapsilosis [13]): 75.3 µM (≈ 31.2 µg/mL); MIC (Candida tropicalis [14]): 75.3 µM (≈ 31.2 µg/mL); MIC (Candida albicans [15]): 18.8 µM (≈ 7.8 µg/mL); selectivity ratio [21]: 0.6; selectivity ratio [22]: 0.6; selectivity ratio [9]: 2.4; selectivity ratio [10]: 1.2; inhibition (INH) [23]: Active; selectivity ratio [24]: 2.3; MIC (Pichia kudriavzevii [16]): 37.6 µM (≈ 15.6 µg/mL); Ratio ([Candida] auris [25]): >2

From ChEMBL document CHEMBL5370521, “New miconazole-based azoles derived from eugenol show activity against Candida spp. and Cryptococcus gattii by inhibiting the fungal ergosterol biosynthesis” (Eur J Med Chem, 2023)
